In article PMC11788822, “Uncovering the potent antimicrobial activity of squaramide based anionophores – chloride transport and membrane disruption” (Chemical Science, 2025):

Key:
S. aureus [1] = test: Growth inhibition assay, S. aureus; format: cell-based, Staphylococcus aureus; conditions: Staphylococcus aureus, 24 h, growth (OD 600 nm) relative to control, 37 °C
Procedure: To determine IC50/80 values, growth (optical density) of S. aureus, methicillin-resistant S. aureus (MRSA), P. aeruginosa, and K. pneumoniae when treated with a range of concentrations of each active compound in vitro was measured at 600 nm after a 24 h incubation period at 37 °C. Each compound was studied for activity below […], and those showing little activity above 200 μM, were noted as such, and omitted from further study.
Staphylococcus aureus culture conditions
S. aureus (ATCC33951) was cultured at 37 °C in Nutrient broth (Oxoid), in an orbital shaker at 200 rpm. Stocks were kept on nutrient agar, stored at 4 °C for up to 2 months, or as glycerol stocks (50/50 glycerol:culture), stored at -70 °C indefinitely. […]
Bacterial cultures were brought to early stationary phase overnight, in nutrient broth (containing 25/50 µg/mL Ampicillin for MRSA/K. pneumoniae, respectively) at 37 °C. Cultures were diluted to an OD600 = 0.01. Aliquots of Culture (100 µl) were added to 100 µL serially diluted compound (200 – 0.78 µM) in nutrient broth in a 96-well plate (Sarstedt, Germany).
Plates were incubated at 37 °C for 24 h and growth was measured at 600 nm, where growth was measured and represented relative to control. […]

[2] = tested on: panel of Gram-positive and -negative pathogens; test: Zone of inhibition assay; format: cell-based; conditions: 5 μL of 1 mM stock on nutrient agar, 37 °C, 24 h; radius ≤ 2 mm deemed not active
Procedure: To do this, a zone of inhibition assay was used as a qualitative measure of activity. To do so, 5 μL of a 1 mM stock of the respective compound was pipetted atop nutrient agar which was previously spread with a panel of Gram-positive and -negative pathogens of interest. Following incubation at 37 °C for 24 h, zones of inhibition were measured and recorded for each compound. Zones with a radius ≤ 2 mm were deemed as not active, and thus eliminated from further study.

S. aureus cells = test: MQAE chloride influx assay; format: cell-based, Staphylococcus aureus; conditions: 5 min, MQAE fluorescence fitted to Stern–Volmer equation
Procedure: To study this, we utilised N-(ethoxycarbonylmethyl)-6-methoxyquinolinium bromide (MQAE) as a fluorescent reporter for cellular Cl^− levels. MQAE fluorescence is highly sensitive to Cl^− flux, where increased cytosolic Cl^− concentration gives rise to a collisional quenching effect. […] To do this, cells were pre-treated with MQAE and then exposed to varying concentrations of 1, 2 and 4, whereafter MQAE fluorescence was read at T = 5 min, and plotted relative to control (Fig. 3).
Furthermore, using the fluorescence data acquired from these assays, and fitting to the Stern–Volmer equation, we could approximate the increased concentration of Cl^− with respect to basal fluorescence for each of the concentrations studied (Table 3). […]
MQAE chloride influx assay
From an overnight culture brought to stationary phase (OD600 = ~1.0) was taken samples, brought to an OD600 = 0.2, which were treated with N-Ethoxycarbonylmethyl-6-methoxyquinolium Bromide (MQAE) (10 mM) for 1 h at 37 0C. Subsequently, cells were washed with & resuspended in PBS. 2 mL of samples were taken & transferred to a fluorescence cuvette, whereupon fluorescence was read (λexc = 350 nm (slit width = 5 nm) λem = 460 nm (slit width = 5 nm)) using a Cary Eclipse Fluorescence Spectrophotometer (Agilent Technologies). Subsequently samples were treated with the Compound of interest for 5 mins whereafter fluorescence was measured as previous, with intensity plotted relative to control, […]
(§1) or measured over the course of 2 hrs, starting at T0 (upon addition of compound).
Alternatively, 200 µL aliquots of cell suspension were added to a 96-well plate, to the desired quantity, and were either untreated (control), or treated with the compound of interest for 5 mins, whereafter fluorescence was read using a BMG Labtech Clariostar Plus platereader, and plotted relative to control. […]
Subsequently, cells were resuspended in 1 mL PBS, and treated with a the respective fluorophore or compound of interest at the specified concentration or […]

S. aureus [3] = test: Modified MTT assay of cellular respiration; format: cell-based, Staphylococcus aureus; conditions: HBSS, Cl− free HBSS or Na+ free HBSS buffer, 5 h treatment
Source text: To further probe the relationship between anion homeostasis and antimicrobial effect, a modified MTT assay was used next to monitor disruption of cellular respiration in the presence of 1, 2, or 4 either with abundant Cl^− and Na^+, in the absence of Cl^−, or in the absence of Na^+ (Fig. 3). […] Chew and co-workers have reported on the behaviours, and dynamics of adamantylamines in the lipid bilayers, and discussed that adamantylamines show a preferential accumulation in the interfacial layer of lipid bilayers[46] and thus we suspected that these compounds, with an identical pharmacophore may behave in a similar manner accumulating in lipid bilayers of bacterial membranes.[47,48] […]
as §1
Alternatively, 200 µL aliquots of cell suspension were added to a 96-well plate, to the desired quantity, and were either untreated (control), or treated with the compound of interest for 5 mins, whereafter fluorescence was read using a BMG Labtech Clariostar Plus platereader, and plotted relative to control.
From an overnight culture of S. aureus brought to stationary phase (OD600 = ~1.0), was taken samples which were diluted to an OD600 = ~0.2 in either Hank’s buffered salt solution, Cl- free HBSS buffer, or Na+ free buffer. Samples were treated with the respective compound for 5 h at 37 0C. Subsequently, Cell densities for each of the samples were standardised to an OD600 = 0.15, in the relevant buffer system. To each sample was added Triphenyl Tetrazolium Chloride (TTC), to a final concentration of 0.5 mg/mL. 100 µL of each sample was placed into the wells of a 96-well place in 8 replicates. Samples were incubated at 37 0C for 18 h, and subsequently supernatant was removed from each well, taking care as to not disturb the Formazan precipitate. To each well was then added 100 µL DMSO, with repeated pipetting to solubilise precipitate. Samples were read using a microplate reader at 550 nm & plotted as percentage cell viability relative to control. […]

| SMILES | IC80 (S. aureus [1]) | IC50 (S. aureus [1]) | zone of inhibition, qualitative measure of activity [2] | Increase in chloride concentration from basal level [Clθ] (mM) (S. aureus cells; 10 μM compound) | Increase in chloride concentration from basal level [Clθ] (mM) (S. aureus cells; 50 μM compound) | Increase in chloride concentration from basal level [Clθ] (mM) (S. aureus cells; 100 μM compound) | Increase in chloride concentration from basal level [Clθ] (mM) (S. aureus cells; 200 μM compound) | effect on cellular respiration (MTT) (S. aureus [3]) |
| --- | --- | --- | --- | --- | --- | --- | --- | --- |
| O=c1c(Nc2cc(C(F)(F)F)cc(C(F)(F)F)c2)c(NC23CC4CC(CC(C4)C2)C3)c1=O [Compound 1] | ~200 µM | 0.781 µM | promising bioactivity | +0.31 (±0.02) mM | +1.44 (±0.16) mM | +4.22 (±2.01) mM | +13.31 (±3.05) mM | concentration dependent decrease in cellular respiration |
| O=c1c(Nc2ccc(Cl)c(Cl)c2)c(NC23CC4CC(CC(C4)C2)C3)c1=O [Compound 2] | 250 µM | 62.5 µM | promising bioactivity | +0.21 (±0.02) mM | +1.53 (±0.07) mM | +2.91 (±0.02) mM | +5.49 (±0.01) mM | concentration dependent decrease in cellular respiration |
| O=c1c(Nc2ccc([N+](=O)[O-])cc2)c(NC23CC4CC(CC(C4)C2)C3)c1=O [Compound 4] |  | 170 µM | promising bioactivity | +0.61 (±0.07) mM | +1.74 (±0.02) mM | +3.57 (±0.18) mM | +10.19 (±0.08) mM | concentration dependent decrease in cellular respiration |
